Data reported in patent publication US20240382610A1 (priority 2021, published 2024).

Key:
[1] = test system: Ramos-Blue Cells NF-kB/AP-1 Reporter B lymphocytes; experiment: Ramos NFkb Reporter Assay; format: cell-based; details: 24 h stimulation, OD655
[2] = test system: CD19+ B cells; experiment: Free CpG activity on CD40 expression by CD19+ B cells in human PBMCs; format: cell-based; details: PBMC from three donors (D559, D804, D643)
Method: Trima residuals were received from Vitalant and diluted 1:2 with Phosphate Buffered Saline (PBS, Gibco). Diluted blood was split into two tubes and underplayed with 15 mL Ficoll-Paque (GE Healthcare). Tubes were centrifuged for 30 minutes at 400×g. PBMCs were collected from the interface, resuspended and washed in FACS buffer (PBS with 0.5% Bovine Serum Albumin (Gibco)). After one wash, PBMCs were resuspended in Complete RPMI (RPMI+10% FBS).
PBMCs were immediately plated onto a 96-well format (500K/well) in Complete RPMI. Five-fold serial dilutions were added to the cells from 1 uM to […] of CpG oligonucleotides at 37° C. under 5% CO2 for 48 hours. Cells were pelleted by centrifugation for five minutes at 400×g and stained at 4° C. in Fixable Viability Dye eFluor 780 (Thermo Fisher) diluted 1:4000 in PBS. Cells were centrifuged and stained at 4° C. in FACS buffer for 30 minutes containing FcR Blocking Reagent (Miltenyi Biotec), anti-CD19, anti-CD20, anti-CD40, anti-HLADR and anti-CD80. Cells were centrifuged and washed twice in FACS buffer and fixed in 0.5% paraformaldehyde. Cells were analyzed on Attune NxT Flow Cytometer (Thermo Fisher), with subsequent data analysis by Flowjo 10.7 (Treestar). Dead cells were excluded by gating on the eFluor 780-negative population. B cells were identified as CD19^+CD20^+cells and level of activation marker was assessed by median fluorescent intensity. […]

[3] = test system: DLD-1 nectin-4 tumor cells; format: cell-based, human

CpG 7-7: "CpG 7-7 (7-7b; SEQ ID NO:35)", free CpG oligonucleotide of series 7 (DNA NCGTCGTGTCGTTT; modified_base 1 OTHER; 5-Bromo-2'-deoxyuridine; modified_base 1..4 OTHER; phosphorothioate linkages; modified_base 4..5 OTHER; phosphotriester linker-PEG24-NH2; modified_base 5..9 OTHER; modified_base 9..10 OTHER; phosphorodithioate linkage; modified_base 10..14 OTHER; modified_base 13..14 OTHER; 2'-O-methyl-thymidine; misc_feature 14 3' spacer)
activity in NFkb reporter assay [1]: significantly higher activity | activity as observed by CD40 expression [2]: higher activities | phagocytosis of DLD-1 nectin-4 tumor cells by macrophages [3]: did not appear to result in detectable phagocytosis
